From US20230405001A1, “TREATMENT OR PREVENTION OF HIV INFECTION” (Janssen Sciences Ireland Unlimited Company, priority 2020, published 2023)

Columns and labels:
[1] = Plasma kinetics in minipigs after single subcutaneous dosing, rilpivirine suspension with or without rHuPH20 (Example 1); type: in vivo; settings: minipig
Protocol: Six minipigs with body weights ranging from 20 to 25 kg at the start of the study were used. The minipigs were fasted overnight before dosing. Three minipigs were dosed subcutaneously in the loin with 0.19 mL of the hyaluronidase solution (10,000 U/mL) followed by 900 mg/3 mL of the rilpivirine nanosuspension at the same injection site (treatment group A). Three minipigs were dosed subcutaneously in the loin with the 900 mg/3 mL of the control rilpivirine suspension (treatment group B—control). The injection volume was 3 mL rilpivirine suspension in both treatment groups. Method—Sequential Administration • 1. Flip-off rHuPH20 solution vial flip cap and wipe with isopropyl alcohol wipe. Allow to dry. Attach an 18 G transfer needle to a 1 mL syringe. • 2. Draw 0.35 mL into the syringe. • 3. Prime the syringe and set liquid level to 0.25 mL in the syringe. • 4. Remove transfer needle and attach syringe cap to 1 mL syringe. • 5. Mix rilpivirine by horizontally shaking the container 30 times over […] approximately 10 s (a back and forth arm movement=2 times). Ensure well mixed/fully re-suspended. • 6. Flip-off rilpivirine vial flip cap and wipe with isopropyl alcohol wipe. Allow to dry. • 7. Attach 18 G transfer needle to 5 mL syringe. • 8. Invert vial and draw>3.2 mL into 5 mL syringe mL (or as much as can be removed from vial). Injecting 1-2 mL of air will facilitate draw. • 9. Detach needle and attach a syringe cap to 5 mL syringe • 10. Invert syringe. Wait 5 minutes for bubbles to settle. • 11. Attach a winged infusion set to the rHuPH20 1 mL syringe. Invert syringe and prime off air so that liquid forms at the tip of the needle. (0.19 mL of rHuPH20 should be in the line) • 12. Insert the winged infusion set into the subcutaneous tissue of the target injection site by pinching the skin and inserting the needle at a 30-45 degree angle. • 13. Release the pinch. • 14. UNSCREW rHuPH20 syringe from infusion set maintaining the needle in the skin. […] It is advisable to have this syringe prepared while the technician is inserting the rHuPH20 infusion line. • 15. Remove the syringe cap from the 5 mL syringe with rilpivirine. Remove air and set the dose at 3.2 mL. • 16. Attach rilpivirine filled syringe to the open end of the infusion set. • 17. […] Plasma samples were analysed individually by means of a validated LC-MS/MS method. Pharmacokinetic Data Analysis • The pharmacokinetic profile of the blood plasma samples was evaluated using non-compartmental pharmacokinetic analysis (using individual Cp vs time profiles). Mean plasma concentrations and PK parameters (Cmax, Tmax, t1/2 and AUC values) were measured and the results are provided in Table 1.

[2] = Plasma kinetics in minipigs over 6 months after single subcutaneous dosing, sequential, admixed or control (Example 2); type: in vivo; settings: minipig, sc, 1830 mg; for AUC(0-t): single s.c. about 1800 mg/6 mL
Protocol: Nine minipigs with body weights ranging from 17 to 21 kg at the start of the study were used. The minipigs were fasted overnight before dosing. The minipigs were anaesthetized with propofol before dosing. Three minipigs were dosed subcutaneously in the loin with 0.44 mL of the hyaluronidase solution (10,000 U/mL) followed by 1818 mg/6.06 mL of the rilpivirine nanosuspension at the same injection site (treatment group A—sequential).
Three minipigs were dosed subcutaneously in the loin with the 1816 mg/6.5 mL admixed hyaluronidase solution (10,000 U/mL)+rilpivirine suspension (treatment group B— admixed). Three minipigs were dosed subcutaneously in the loin with the 1830 mg/6.1 mL of the control rilpivirine suspension (treatment group C—control). Vetbond 3M surgical sealant was used to seal the injection site to limit any leakage if necessary.
The control rilpivirine suspension was prepared and administered by the following method. • 1. Mix rilpivirine by horizontally shaking the container 30 times over approximately 25 cm within approximately 10 s (a back and forth arm movement=2 times). Ensure well mixed/fully re-suspended. • 2. Flip-off rilpivirine vial flip cap and wipe with isopropyl alcohol wipe. Allow to dry. • 3. Repeat steps 1-2 with a 2nd vial of rilpivirine. If there is a low draw, or unexpected amount of air/settling after draw, a 3rd vial may need to be prepared to ensure the proper dose level can be filled into the syringe. • 4. Attach 18 G transfer needle to 10 mL syringe. • 5. Invert vial and draw>3.2 mL into 10 mL syringe (or as much as can be removed from vial). Injecting 1-2 mL of air will facilitate draw. • Repeat step 5 with the 2nd vial so that at approximately 6.5 mL of drug product is in the 10 mL syringe. Important: see note in (step 3) about preparing a 3rd vial in case of low volume draw. • 6. Detach needle and attach a syringe cap to 10 mL syringe • 7. Wait 5 minutes for bubbles to settle with syringe inverted. • 8. Remove syringe cap, invert syringe prime off air. • 9. Attach a winged infusion set. • 10. Set dose at 6.1 mL after filling infusion set line until liquid forms at tip of needle (0.44 mL undeliverable/dead volume will be in infusion set). • 11. Insert the winged infusion set into the subcutaneous tissue of the target injection site by pinching the skin and inserting the needle at a 30-45 degree angle. • 12. Release the pinch. • 13. Inject over 2 minutes at a constant rate until the syringe plunger bottoms out • 14. Remove the winged infusion set and dispose. • 15. Record any site leakage.
The sequential administration of hyaluronidase solution and then rilpivirine suspension was performed according to the following method. • 1. Flip-off rHuPH20 solution vial flip cap and wipe with isopropyl alcohol wipe. Swirl vial. Allow vial stopper to dry. […]

λz ([1]; single s.c. 900 mg/3 mL, N=3): 0.0009 ± 0.00009 h⁻¹
Tlast ([1]; single s.c. 900 mg/3 mL, median, N=3): 2160 h
AUC(0-t) ([1]; plasma, sc, single s.c. 900 mg/3 mL, N=3): 22.3 ± 2.93 µg·h/mL
Cmax ([1]; plasma, sc, single s.c. dose in the loin, 900 mg/3 mL rilpivirine suspension, N=3, mean ± SD): 0.0285 ± 0.00956 µg/mL
Cmax ([2]; control group C, single animal, at 7 hours post-administration, read-out: Cmax of the excluded outlier minipig): 0.563 µg/mL
Cmax ([2]; single s.c. about 1800 mg/6 mL rilpivirine nanosuspension, N=3, control value excludes an outlier minipig, read-out: Mean Cmax): 0.049 µg/mL
AUC(0-t) ([2]; N=3, read-out: Mean AUC0-1 months): 22 µg·h/mL
AUC(0-t) ([2]; N=3, read-out: Mean AUC0-6 months): 78.3 µg·h/mL
Compound: Cc1cc(/C=C/C#N)cc(C)c1Nc1ccnc(Nc2ccc(C#N)cc2)n1 [Rilpivirine, 4-[[4-[[4-[(1E)-2-cyanoethenyl]-2,6-dimethylphenyl]amino]-2-pyrimidinyl]amino]benzonitrile]
